According to patent US9150568B2, “Compositions and methods for modulating FXR” (NOVARTIS AG, priority 2010, dated 2015):

What follows are molecules tested against T1, human Farnesoid X Receptor (FXR) ligand binding domain (GST-FXR LBD) (Homo sapiens, UniProt Q96RI1) (assay: Human GST-FXR LBD co-activator interaction assay (HTRF)). Details: GST-FXR LBD / biotin-SRC-1 peptide FRET; response relative to GW4064; read-out: FXR Co-activator interaction assay (EC50).
T1 construct: purchased Invitrogen
T1 sequence (Q96RI1 193-472 isoform Q96RI1-2): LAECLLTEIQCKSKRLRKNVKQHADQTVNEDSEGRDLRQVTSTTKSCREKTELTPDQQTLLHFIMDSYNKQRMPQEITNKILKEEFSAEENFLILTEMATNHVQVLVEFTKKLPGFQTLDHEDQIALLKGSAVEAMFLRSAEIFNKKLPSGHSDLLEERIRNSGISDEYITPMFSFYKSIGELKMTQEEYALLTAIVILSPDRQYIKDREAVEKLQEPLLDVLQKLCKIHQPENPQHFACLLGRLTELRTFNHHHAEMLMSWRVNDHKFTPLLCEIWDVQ
Type: biochemical
How it was run: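 FRET (HTRF) read-out of ligand-induced binding between GST-FXR LBD and an SRC-1 peptide, detected with anti-GST cryptate and streptavidin-XL665 in buffer with 50 mM KF. Response % was normalized to DMSO and to the maximal GW4064 response. EC50 came from a four-parameter fit.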
COC(=O)c1cc(C)nc(N2C3CC[C@H]2C[C@H](OCc2c(-c4ccccc4OC(F)(F)F)noc2C2CC2)C3)n1 [Example 18-7A] gave an EC50 of 18 nM. With O=C(O)c1ccnc(N2C3CC[C@H]2CC(OCc2c(-c4ccccc4C(F)(F)F)noc2C2CC2)C3)n1 (stereo partly shown) [Example 21-5B] the EC50 was 10 nM. Work on O=C(O)c1ccc2nc(N3C4CC[C@H]3C[C@H](OCc3c(-c5c(F)cccc5F)noc3C3CC3)C4)sc2c1 [Example 6-5B] yielded an EC50 of 5.6 nM. Molecule COC(=O)c1cnc(N2C3CC[C@H]2CC(OCc2c(-c4ccccc4OC(F)F)noc2C2CC2)C3)cn1 (stereo partly shown) [Example 22-11A] has an EC50 of 110 nM. Fc1cc(-c2nn[nH]n2)ccc1N1C2CC[C@H]1CC(OCc1c(-c3ccccc3OC(F)F)noc1C1CC1)C2 (stereo in doubt) [Example 26B, 5-cyclopropyl-3-(2-(difluoromethoxy)phenyl)-4-(((8-(2-fluoro-4-(2H-tetrazol-5-yl)phenyl)-8-azabicyclo[3.2.1]octan-3-yl)oxy)methyl)isoxazole] showed an EC50 of 0.3 nM. Cc1nc(N2C3CC[C@H]2CC(OCc2c(-c4ccccc4C(F)(F)F)noc2C2CC2)C3)ccc1C(=O)O (stereo partly shown) [Example 30-45] gave an EC50 of 18 nM. COC(=O)c1cnc(N2C3CC[C@H]2CC(OCc2c(-c4c(F)cccc4F)noc2C2CC2)C3)c(Br)c1 (stereo partly shown) [Example 22-21] showed an EC50 of 29 nM.
